From US20240091247A1, “INHIBITOR FOR CHRONIC MYELOID LEUKEMIA STEM CELLS” (Ohara Pharmaceutical Co., Ltd., priority 2021, published 2024)

Legend:
LXN [1] = assay: LXN protein expression by Western blotting, OR21 with TKI (FIG. 5); type: cell-based; conditions: K562 and KBM5 cells, 100 nM OR21, 1000 nM imatinib, 2.5 nM dasatinib, 1, 2 and 3 days, corrected with β actin
Procedure: (§1) K562 cells (cell lines derived from CML) were purchased from JCRB cell bank and KBM5 cells (cell lines derived from CML) were provided by Dr. M. Beran (MD Anderson Cancer Center, University of Texas). These calls were cultured in an RPMI 1640 medium containing 10% fetal bovine serum (FBS) and 1% penicillin-streptomycin at 37° C. in atmosphere of 5% CO2.
0, 24, and 48 hours after the cell seeding, 100 nM OR21, a DNA methyltransferase inhibitor, was added. […] After the culture, the cells were collected, dissolved, and determined for protein expression level of LXN by Western blotting. […] The expression level of LXN shown in FIG. 5 represents each expression level of the cases when the LXN expression under each condition was corrected with β actin and the expression level in the control was taken as 1.0.

LXN [2] = assay: LXN gene expression by microarray in K562 cells; type: cell-based; conditions: 100 nM OR21, 1000 nM imatinib
Procedure: as §1
(§2) After the culture, mRNA was collected and gene expression was comprehensively analyzed by microarrays.

LXN [3] = assay: LXN gene expression by microarray in KBM5 cells; type: cell-based; conditions: 100 nM OR21, 1000 nM imatinib
Procedure: as §1, §2

DNMT1 = DNMT1 expression in K562 cells (FIG. 6); type: cell-based; conditions: 100 nM azacytidine, decitabine or cytarabine
LXN [4] = assay: LXN protein expression by Western blotting in K562 cells, azacytidine/decitabine/cytarabine with imatinib (FIG. 6); type: cell-based; conditions: 100 nM azacytidine, decitabine or cytarabine, 1000 nM imatinib
Procedure: 0, 24, and 48 hours after the cell seeding, azacytidine (100 nM), decitabine (100 nM), or cytarabine (100 nM) was added to K562 cell culture, cultured for 2 days. […] After the culture, the cells were collected, dissolved, and determined for protein expression level of LXN by Western blotting. The expression level of LXN shown in FIG. 6 represents each expression level of the cases when the LXN expression under each condition was corrected with β actin and the expression level in the control was taken as 1.0.

[5] = system: stem cells or progenitor cells of CML; assay: Mouse model of CML (recipient mice engrafted with GFP positive MIG-BCR-ABL1 myeloid cells); type: in vivo; conditions: after 12 days of administration, OR21 1.35 mg/kg i.p., IM 150 mg/kg oral
Procedure: Recipient mice were engrafted with myeloid cells to which GFP positive MIG-BCR-ABL1 had been introduced and used as CML models. […] After administration of the drugs to each group for 12 days, the GFP positive cells in peripheral blood, bone marrow, and spleen were determined. Inter-group comparisons were performed by a significance test of Mann-Whitney U-tests (p<0.05, **p<0.01) in FIG. 1.

stem cells of CML = assay: Limiting dilution assay in secondarily transplanted mice; type: in vivo; conditions: peripheral blood, 16 weeks after secondary transplantation; compared to vehicle or IM donor group
Procedure: Then, engraftment of GFP positive cells in the peripheral blood (PB) at 16 weeks after the secondary transplantation was determined and analyzed by limiting dilution assay. […] The bottom row of the table indicates the cell number required to be engrafted. The larger numbers mean that it is more difficult to engraft. It is noted that engraftment of GFP positive cells is defined to have a GFP positive rate of 0.5% or more in the peripheral blood of recipient mice. […] The higher plots or slope of the lines mean that it is more difficult to engraft.

| SMILES | protein expression level of LXN (LXN [1]) | gene expression level of LXN in respect of the control (LXN [2]) | gene expression level of LXN in respect of the control (LXN [3]) | expression of DNMT1 (DNMT1) | protein expression of LXN (LXN [4]) | other results |
| --- | --- | --- | --- | --- | --- | --- |
| Cc1ccc(NC(=O)c2ccc(CN3CCN(C)CC3)cc2)cc1Nc1nccc(-c2cccnc2)n1 [imatinib] | almost no effect | 1.3 times | 1.9 times |  |  |  |
| Nc1ncn([C@@H]2O[C@H](CO)[C@@H](O)[C@H]2O)c(=O)n1 [azacytidine, 4-amino-1-β-D-ribofuranosyl-s-triazin-2(1H)-one] |  |  |  | reduced |  |  |
| Nc1ncn([C@H]2C[C@H](O)[C@@H](CO)O2)c(=O)n1 [decitabine, 4-amino-1-(2-deoxy-β-D-erythro-pentofuranosyl)-1,3,5-triazin-2(1H)-one] |  |  |  | reduced | increased |  |
| CC[Si](CC)(CC)OC[C@H]1O[C@@H](n2cnc(N)nc2=O)C[C@@H]1O [OR21] | increase in the protein expression level of LXN over time | 4.5 times | 3.4 times |  |  | linage-negative cells (Lin-) in bone marrow [5]: decreased; Lin-Sca-1+c-Kit+ (LSK) cells ([5]; bone marrow): decreased; GFP positive cell rate ([5]; peripheral blood, bone marrow and spleen, compared to vehicle group): significant decrease; GFP positive cells in mice of the secondary transplantation (stem cells of CML): significantly reduced |
| Nc1ccn([C@@H]2O[C@H](CO)[C@@H](O)[C@@H]2O)c(=O)n1 [cytarabine] |  |  |  | did not exhibit inhibitory effect | no increase |  |
